Assays:
[1] = target: T1, ERα protein level in T47D cells (Homo sapiens, UniProt P03372); assay: Immunoblotting; type: cell-based; conditions: E2-non depleted T47D cells, 24, 48 and 72 h
T1 construct: from whole-cell extracts of T47D cells; endogenous in cells; host or cells: T47D
Protocol: (§1) Then, they were washed with ice-cold PBS supplemented with 1 mM ortovanadate and lysed with RIPA buffer containing protease and phosphatase inhibitors (Thermo Fisher Scientific, Waltham, MA, USA). Equal protein amounts were analyzed by SDS–PAGE, and transferred to nitrocellulose membranes (Thermo Fisher Scientific, Waltham, MA, USA), blocked with Tris-buffered saline/0.05% Tween 20 (TBS-T) containing 5% blotto (Merck, Darmstadt, Germany) or 5% BSA for total and phosphorylated proteins, respectively. Immunoblotting was carried out with mouse anti-ERα F-10 (Santa Cruz Biotech, Santa Cruz, CA, USA), rabbit total anti-STAT5 (Cell Signaling Technology, Leiden, The Netherlands) or mouse anti-polyubiquitin (EMD Millipore, Burlington, MA, USA). After washing, membranes were incubated with horseradish peroxidase-conjugated secondary antibodies (Bio-Rad) for 1 h at room temperature. The β-actin antibody (Santa Cruz Biotech, CA, USA) was used as the loading control. Finally, protein bands were visualized by using Clarity™ Western ECL Substrate (Bio-Rad) in the ChemiDoc XRS system (Bio-Rad) and were analyzed with Quantity One software (Bio-Rad).

MCF-10A cells [2] = assay: Drug combination assay with 4-OHTAM (MTT); conditions: Homo sapiens, 72 h, read-out: IC50, cell viability inhibition
Protocol: Cells were seeded at 5000 and 7500 cells, per well, respectively, and cell viability was assessed by MTT assays 72 h after treatment. Briefly, cells were incubated with constant ratio combinations of indicated test compounds by doubling dilutions of the individual drugs over a wide range of concentrations [43]. […] Dose-effect curves of the individual or combined compounds were plotted and assessed by the median effect method of Chou and Talalay [43] using Calcusyn software 2.0 (Biosoft, Cambridge, UK), thus obtaining the combination index (CI) values. CI values less than 1, equal to 1, and greater than 1 indicated synergism, addition, and antagonism, respectively.

[3] = target: T2, native ERα from rat uterine cytosol (Rattus norvegicus, UniProt P06211); assay: Radiolabeled E2 competitor binding assay in rat uterine cytosol (RUC)
T2 construct: from tissue; host or cells: uterine cytosol of ovariectomized Sprague-Dawley rats
T2 sequence (P06211 whole entry): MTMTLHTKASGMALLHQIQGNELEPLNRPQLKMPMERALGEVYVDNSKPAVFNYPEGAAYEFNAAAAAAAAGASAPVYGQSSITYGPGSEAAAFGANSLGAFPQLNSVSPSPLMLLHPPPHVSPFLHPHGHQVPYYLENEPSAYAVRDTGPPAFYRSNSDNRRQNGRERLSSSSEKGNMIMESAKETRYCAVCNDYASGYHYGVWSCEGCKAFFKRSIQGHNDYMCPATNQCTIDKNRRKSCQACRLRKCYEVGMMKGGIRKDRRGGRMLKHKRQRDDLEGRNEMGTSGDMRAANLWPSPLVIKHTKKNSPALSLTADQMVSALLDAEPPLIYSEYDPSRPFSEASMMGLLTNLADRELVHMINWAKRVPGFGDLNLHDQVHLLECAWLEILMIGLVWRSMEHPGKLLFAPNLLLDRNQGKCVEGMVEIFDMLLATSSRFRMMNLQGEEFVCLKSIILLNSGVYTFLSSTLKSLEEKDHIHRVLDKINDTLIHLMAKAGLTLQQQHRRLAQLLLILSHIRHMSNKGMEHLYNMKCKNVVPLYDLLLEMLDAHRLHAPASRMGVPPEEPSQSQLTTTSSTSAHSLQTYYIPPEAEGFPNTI
Protocol: Animal studies were approved by the Bioethics Committee of the University of Las Palmas de Gran Canaria (OEBA-ULPGC 40/2020), and the experiments were carried out according to OECD guidelines (ER-RVC OPPTS 890.1250). ER was obtained from rat uterine cytosol (RUC). Briefly, RUC was extracted from 8–12 weeks old Sprague-Dawley rats 13–16 days after they were ovariectomized under ketamine (75 mg/kg)/medetomidine (1 mg/kg) anesthesia. Uteri were removed, trimmed free of adipose tissue, blotted, weighed and frozen on liquid nitrogen until RUC isolation. Then, 100 mg of uteri per ml of ice-cold TEGM buffer (10 mM Tris, 1.5 mM EDTA, 10% glycerol, 3 mM MgCl2, 1 mM PMSF, 1 mM DTT, pH 7.4) were homogenized by using a Polytron PT3000 homogenizer (Kinematica, Malters, Switzerland) at 15,000 rpm for 3 bursts of 30″ each. The homogenate was sedimented, and the supernatant was centrifuged at 105,000 g for 60 min at 4 °C to obtain RUC. Protein concentration was determined by Bradford´s assay (Bio-Rad, Irvine, CA, USA), and 2 mg/mL of RUC was taken from all samples [35]. […] Then, 200 μL of DCC suspension (0.8% charcoal: 0.08% dextran; w:w) in cold TE buffer was added to each tube and incubated for 10 min before DCC was centrifuged at 3000 g for 10 min at 4 °C. Supernatant (200 μL) was obtained to measure total and non-specific bound radioactivity in TRICARB 4810 LSC counter (PerkinElmer). […]

[4] = test system: total STAT5 protein level in T47D cells; assay: Immunoblotting; type: cell-based, human; conditions: 24–72 h
Protocol: as §1

PBMC = assay: MTT cell viability assay; type: cell-based; conditions: Homo sapiens, 72 h, 10%FBS growth media
Protocol: (§2) Straightforward, the tetrazolium salt 3-(4,5-methyltiazol-2yl-)-2,5diphenyl-tetrazolium bromide (MTT) (Applichen, Darmstadt, Germany) was added to cells, incubated for 2–4 h at 37 °C, and lysed in 10% SDS.

[5] = test system: androgen receptor (AR)-dependent transcriptional activity, MDA-kb2 cells; assay: AR-mediated transcription, luciferase reporter in MDA-kb2 cells (testosterone); conditions: 100 nM Testosterone; compounds 1–10 µM
T47D cells = assay: Real-time monitoring of 2D cell growth (IncuCyte); type: cell-based; conditions: Homo sapiens, 120 h, complete estrogenic media (10%FBS), 5 days, AUC
[6] = test system: alkaline phosphatase (ALP) activity in Ishikawa cells; assay: Alkaline phosphatase assay; type: cell-based, human; conditions: for effect on E2-induced ALP activity: E2 10 nM, 48 h and 72 h
Protocol: Human endometrium cells ([…]) were cultured in MEM without phenol red with Earle's Salts culture, which was supplemented with estrogen-deprived 10 DCC-FBS du-ring 5 days. […] Cells were washed with ice-cold PBS, and Alkaline Phosphatase (ALP) activity was measured by using ALP Assay Kit (Abcam, Cambridge, MA, USA). The substrate p-nitrophenyl phosphate (pNPP) and the ALP enzyme were used to detect ALP activity by the analysis of the optical density at 405 nm in the iMark microplate Reader (Bio-Rad, Irvine, CA, USA). […] Protein concentration was quantified with the bicinchoninic acid assay (BCA) kit (Bio-Rad).

[7] = test system: glucocorticoid receptor (GR)-dependent transcriptional activity, MDA-kb2 cells; assay: GR-mediated transcription, luciferase reporter in MDA-kb2 cells (dexamethasone); conditions: 100 nM Dexamethasone; compounds 1–10 µM
MDA-MB-231 cells = assay: MTT cell viability assay; type: cell-based, human; conditions: Homo sapiens, MDA-MB-231, 72 h, 10%FBS growth media
Protocol: as §2

MCF-10A cells [8] = assay: MTT cell viability assay; type: cell-based, human; conditions: Homo sapiens, MCF-10A, 72 h, 10%FBS growth media
Protocol: as §2

BT-549 cells = assay: MTT cell viability assay; type: cell-based, human; conditions: Homo sapiens, BT-549, 72 h, 10%FBS growth media
Protocol: as §2

MCF-7 cells = assay: MTT cell viability assay; type: cell-based, human; conditions: Homo sapiens, MCF7, 72 h, 10%FBS growth media
Protocol: as §2

Hs-578T cells = assay: MTT cell viability assay; type: cell-based, human; conditions: Homo sapiens, Hs-578T, 72 h, 10%FBS growth media
Protocol: as §2

MCF-7/BUS cells = assay: MTT cell viability assay; type: cell-based, human; conditions: Homo sapiens, MCF7/BUS; 72 h, 10%FBS growth media, MTT; read-out: IC50 (μM) MCF-7/BUS
Protocol: as §2

SMILES	effect on ERα protein level [1]	IC50 (MCF-10A cells [2]) [µM]	IC50 [3] [µM]	effect on total STAT5 protein level [4]	IC50 (PBMC) [µM]	effect on T-induced luciferase activity [5]	IC50 (T47D cells) [µM]	effect on E2-induced ALP activity [6]	ALP activity, % of E2-induced maximal activity (Emax) ([6]; absence of E2)	effect on DEX-induced luciferase activity [7]	IC50 (MDA-MB-231 cells) [µM]	IC50 (MCF-10A cells [8]) [µM]	IC50 (BT-549 cells) [µM]	IC50 (MCF-7 cells) [µM]	IC50 (Hs-578T cells) [µM]	IC50 (MCF-7/BUS cells) [µM]	Emax ([6]; Homo sapiens, Ishikawa, read-out: ALP activity, % of E2-induced maximal activity (Emax)) [%]
O=C1C(c2ccc([N+](=O)[O-])cc2)=CC(O)(c2ccccc2)N1Cc1ccccc1 (centres unmarked) [compound 35, 1-benzyl-5-hydroxy-3-(4-nitrophenyl)-5-phenyl-1H-pyrrol-2(5H)-one]	dose-dependent (Figure 14B) decrease of ERα protein content	> 0.56	76.6 ± 1.3	this effect was not provoked	17.3 ± 6.48	Neither 4-OHTAM nor compounds 32 or 35 displayed cross-activation	6.98 ± 1.15	inhibited E2-induced ALP activity	did not affect basal	Neither 4-OHTAM nor compounds 32 or 35 displayed cross-activation	9.08 ± 0.93	3.16 ± 0.09	4.19	2.59 ± 0.34	8.22 ± 1.78	2.64 ± 0.88	
Cc1ccc(C2=CC(O)(c3ccccc3)N(Cc3ccccc3)C2=O)cc1C (centres unmarked) [compound 32, 1-benzyl-3-(3,4-dimethylphenyl)-5-hydroxy-5-phenyl-1H-pyrrol-2(5H)-one]	needed a longer time of cell exposure	0.35	128.4 ± 1.25	this effect was not provoked	> 30	Neither 4-OHTAM nor compounds 32 or 35 displayed cross-activation	5.34 ± 2.47	inhibited E2-induced ALP activity		Neither 4-OHTAM nor compounds 32 or 35 displayed cross-activation	7.63 ± 2.38	0.08	4.89 ± 0.96	2.54 ± 0.49	> 10	5.32 ± 2.09	18
